The source made the active and inactive calls.
How the values were obtained:
Assay type in all cases: functional
[1] = target: T1, Neuropeptide Y receptor type 1 (Homo sapiens) (UniProt P25929); test: Antagonist activity at neuropeptide Y receptor Y1 at 10 uM
T1 sequence (whole entry): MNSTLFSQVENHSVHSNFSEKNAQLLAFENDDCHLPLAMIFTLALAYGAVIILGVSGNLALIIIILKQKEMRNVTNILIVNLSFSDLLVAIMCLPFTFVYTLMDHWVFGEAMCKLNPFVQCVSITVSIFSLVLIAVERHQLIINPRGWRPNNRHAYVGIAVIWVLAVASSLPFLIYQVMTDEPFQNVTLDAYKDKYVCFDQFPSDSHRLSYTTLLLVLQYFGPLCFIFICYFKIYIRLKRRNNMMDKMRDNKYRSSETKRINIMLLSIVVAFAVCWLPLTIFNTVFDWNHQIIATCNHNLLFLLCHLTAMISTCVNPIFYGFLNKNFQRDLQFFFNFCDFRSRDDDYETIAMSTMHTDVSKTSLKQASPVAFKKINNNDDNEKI

[2] = target: T2, Neuropeptide Y receptor type 2 (Homo sapiens, UniProt P49146); test: Antagonist activity at neuropeptide Y receptor Y2
T2 sequence (P49146 whole entry): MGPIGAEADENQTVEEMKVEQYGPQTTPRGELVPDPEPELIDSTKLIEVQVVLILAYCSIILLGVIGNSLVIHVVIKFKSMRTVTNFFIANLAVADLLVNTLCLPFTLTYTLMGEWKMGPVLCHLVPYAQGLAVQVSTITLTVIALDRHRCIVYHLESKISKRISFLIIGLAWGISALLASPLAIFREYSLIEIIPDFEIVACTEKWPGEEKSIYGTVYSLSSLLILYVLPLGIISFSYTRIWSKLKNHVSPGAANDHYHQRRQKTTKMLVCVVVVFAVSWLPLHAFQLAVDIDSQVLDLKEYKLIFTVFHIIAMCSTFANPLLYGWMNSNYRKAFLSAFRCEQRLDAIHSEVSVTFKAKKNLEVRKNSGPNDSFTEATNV

[3] = target: T3, Neuropeptide Y receptor type 2 (Homo sapiens) (UniProt P49146); test: Antagonist activity at neuropeptide Y receptor Y2 at 10 uM
T3 sequence (whole entry): T2 sequence (P49146 whole entry)

[4] = target: T2, Neuropeptide Y receptor type 2; test: Partial antagonist activity at neuropeptide Y receptor Y2

SMILES | Activity [1] | IC50 [2] [nM] | Activity [3] | IC50 [4] [nM]
OC(c1ccccc1)(c1ccccc1)C1CCN(C(=S)Nc2ccccc2)CC1 | inactive | – | inactive | –
COc1ccc(OC(=O)N2CCC(C(O)(c3ccccc3)c3ccccc3)CC2)cc1 | inactive | 2680 | – | –
CCN(CC)S(=O)(=O)c1ccc(NC(=S)N2CCC(C(O)(c3ccccc3)c3ccccc3)CC2)cc1 | inactive | 136 | – | –
CCOc1ccc(NC(=S)N2CCC(C(O)(c3ccccc3)c3ccccc3)CC2)c(F)c1 | inactive | 1350 | – | –
O=C(Oc1ccc(S(=O)(=O)N2CCCC2)cc1)N1CCC(C(O)(c2ccccc2)c2ccccc2)CC1 | inactive | 49 | – | –
CN(C)S(=O)(=O)c1ccc(NC(=S)N2CCN(C3c4ccccc4CCc4ccccc43)CC2)cc1 | inactive | – | inactive | –
CCOc1ccc(NC(=S)N2CCN(C(c3ccccc3)c3ccccc3)CC2)cc1 | inactive | 371 | – | –
COc1cccc(NC(=S)N2CCC(C(O)(c3ccccc3)c3ccccc3)CC2)c1 | inactive | – | – | 8160
CCOc1ccc(NC(=S)N2CCC(C(O)(c3ccccc3)c3ccccc3)CC2)c(C(F)(F)F)c1 | inactive | – | inactive | –
COc1cccc(-c2nc(-c3ccc(NC(=O)Cc4ccccc4OC)cc3)no2)c1 | – | 1200 | – | –
CN(C)S(=O)(=O)c1ccc(NC(=S)N2CCC(C(O)(c3ccccc3)c3ccc(F)cc3)CC2)cc1 (stereo unspecified) | inactive | 89 | – | –
CCOc1ccc(NC(=S)N2CCC(C(O)(c3ccccc3)c3ccccc3)CC2)cc1C#N | inactive | 323 | – | –
CCOc1ccc(NC(=S)N2CCC(C(O)c3ccccc3)CC2)cc1 (stereo unspecified) | inactive | – | inactive | –
CCN(CC)C(=O)c1cccc(OC(=O)N2CCC(C(O)(c3ccccc3)c3ccccc3)CC2)c1 | inactive | – | inactive | –
Cc1ccc(S(=O)(=O)C(c2ccccc2)c2c(C)noc2C)cc1 (stereo unspecified) | – | 4400 | – | –
CCOC(=O)c1ccc(NC(=S)N2CCC(C(O)(c3ccccc3)c3ccccc3)CC2)cc1 | inactive | 207 | – | –
COc1ccc(NC(=S)N2CCC(C(O)(c3ccccc3)c3ccccc3)CC2)cc1 | inactive | 1100 | – | –
CN(C)S(=O)(=O)c1ccc(NC(=S)N2CCC(C(O)(c3ccccc3)c3cccnc3)CC2)cc1 (stereo unspecified) | inactive | – | inactive | –
CCOc1ccc(NC(=S)N2CCC(C(O)(c3ccccc3)c3ccccc3)CC2)cc1 | inactive | 190 | – | –
OC(c1ccccc1)(c1ccccc1)C1CCN(C(=S)Nc2ccc(C(F)(F)F)cc2Cl)CC1 | inactive | – | inactive | –
CC(C)Oc1ccc(NC(=S)N2CCC(C(O)(c3ccccc3)c3ccccc3)CC2)cc1 | inactive | 1770 | – | –
CCN(CC)c1ccc(NC(=S)N2CCC(C(O)(c3ccccc3)c3ccccc3)CC2)cc1Cl | inactive | 85 | – | –
Cc1ccc(C)c(NS(=O)(=O)c2cc(C(=O)Nc3ccccc3-c3ccccc3)ccc2C)c1 | – | 440 | – | –
CCOc1ccc(NC(=S)N2CCC(C(O)(c3ccccc3)c3c(C)noc3C)CC2)cc1 (stereo unspecified) | inactive | 3300 | – | –
CCNS(=O)(=O)c1ccc(NC(=S)N2CCC(C(O)(c3ccccc3)c3ccccc3)CC2)cc1 | inactive | 121 | – | –
CCN(CC)C(=O)c1ccc(NC(=S)N2CCC(C(O)(c3ccccc3)c3ccccc3)CC2)cc1 | inactive | 78 | – | –
OC(c1ccccc1)(c1ccccc1)C1CCN(C(=S)Nc2ccc(OC(F)(F)F)cc2)CC1 | inactive | 1050 | – | –
OC(c1ccccc1)(c1ccccc1)C1CCN(C(=S)Nc2cccc(C(F)(F)F)c2)CC1 | inactive | – | inactive | –

Now from value to compound:

Activity [1] | IC50 [2] [nM] | Activity [3] | IC50 [4] [nM] | SMILES
inactive | 141 | – | – | CS(=O)(=O)c1ccc(OC(=O)N2CCC(C(O)(c3ccccc3)c3ccccc3)CC2)cc1
inactive | – | inactive | – | CCOc1ccc(NC(=S)N2CCC(C(O)(c3ccccc3)c3ccccc3)CC2)c(C)c1
inactive | – | inactive | – | CCOc1ccc(NC(=S)N2CCC(=C(c3ccccc3)c3ccccc3)CC2)cc1
inactive | 301 | – | – | CN(C)C(=O)c1ccc(NC(=S)N2CCC(C(O)(c3ccccc3)c3ccccc3)CC2)cc1
inactive | 72 | – | – | CCN(CC)c1ccc(NC(=S)N2CCC(C(O)(c3ccccc3)c3ccccc3)CC2)cc1
inactive | 59 | – | – | CCS(=O)(=O)c1ccc(OC(=O)N2CCC(C(O)(c3ccccc3)c3ccccc3)CC2)cc1
inactive | 483 | – | – | CN(C)S(=O)(=O)c1ccc(NC(=S)N2CCN(C(c3ccccc3)c3ccccc3)CC2)cc1
inactive | 1580 | – | – | CCOc1ccc(OC(=O)N2CCC(C(O)(c3ccccc3)c3ccccc3)CC2)cc1
inactive | – | – | 271 | OC(c1ccccc1)(c1ccccc1)C1CCN(C(=S)Nc2ccc(N3CCCCC3)cc2)CC1
inactive | 1200 | – | – | OC(c1ccccc1)(c1ccccc1)C1CCN(C(=S)Nc2ccc(N3CCCC3)cc2)CC1
inactive | – | inactive | – | CCC(=O)Nc1ccc(OC(=O)N2CCC(C(O)(c3ccccc3)c3ccccc3)CC2)cc1
inactive | – | inactive | – | CCN(CC)S(=O)(=O)c1cccc(OC(=O)N2CCC(C(O)(c3ccccc3)c3ccccc3)CC2)c1
inactive | 12 | – | – | CCN(CC)S(=O)(=O)c1ccc(OC(=O)N2CCC(C(O)(c3ccccc3)c3ccccc3)CC2)cc1
inactive | 19 | – | – | CN(C)S(=O)(=O)c1ccc(NC(=S)N2CCC(C(O)(c3ccccc3)c3ccccc3)CC2)cc1
inactive | 899 | – | – | CC(C)Oc1ccc(NC(=S)N2CCC(C(O)(c3ccccc3)c3ccccc3)CC2)cc1C#N
inactive | – | inactive | – | COC(c1ccccc1)(c1ccccc1)C1CCN(C(=S)Nc2ccc(S(=O)(=O)N(C)C)cc2)CC1
inactive | 612 | – | – | CN(C)c1ccc(NC(=S)N2CCC(C(O)(c3ccccc3)c3ccccc3)CC2)cc1

Activity [1] | IC50 [2] [nM] | Activity [3] | IC50 [4] [nM] | SMILES
inactive | 206 | – | – | CCNC(=O)c1ccc(NC(=S)N2CCC(C(O)(c3ccccc3)c3ccccc3)CC2)cc1
inactive | > 10000 | – | – | CCOc1ccc(NC(=S)N2CCC(C(c3ccccc3)c3ccccc3)CC2)cc1
inactive | 1420 | – | – | CNC(=O)c1ccc(NC(=S)N2CCC(C(O)(c3ccccc3)c3ccccc3)CC2)cc1
inactive | – | – | 238 | CCOC(=O)c1cccc(NC(=S)N2CCC(C(O)(c3ccccc3)c3ccccc3)CC2)c1
inactive | 394 | – | – | CS(=O)(=O)Nc1ccc(OC(=O)N2CCC(C(O)(c3ccccc3)c3ccccc3)CC2)cc1
inactive | 248 | – | – | CN(C)S(=O)(=O)c1ccc(NC(=S)N2CCC(C(O)(c3ccccc3)c3ccsc3)CC2)cc1 (stereo unspecified)
inactive | 6760 | – | – | CCOC(=O)c1ccc(NC(=S)N2CCC(C(c3ccccc3)c3ccccc3)CC2)cc1
inactive | 777 | – | – | CCCc1ccc(NC(=S)N2CCC(C(O)(c3ccccc3)c3ccccc3)CC2)cc1
inactive | – | inactive | – | CN(C)S(=O)(=O)c1ccc(NC(=S)N2CCC(C(O)(c3ccccc3)c3ccoc3)CC2)cc1 (stereo unspecified)
inactive | 67 | – | – | CN(C)S(=O)(=O)c1ccc(NC(=S)N2CCN(C3c4ccccc4NC(=O)c4ccccc43)CC2)cc1 (stereo unspecified)
inactive | – | inactive | – | CC(=O)Nc1ccc(OC(=O)N2CCC(C(O)(c3ccccc3)c3ccccc3)CC2)cc1
inactive | 117 | – | – | O=S(=O)(c1ccc(NC(=S)N2CCC(C(O)(c3ccccc3)c3ccccc3)CC2)cc1)N1CCCC1
inactive | 178 | – | – | OC(c1ccccc1)(c1ccccc1)C1CCN(C(=S)Nc2ccc(C(F)(F)F)cc2)CC1
inactive | 61 | – | – | CN(C)S(=O)(=O)c1ccc(OC(=O)N2CCC(C(O)(c3ccccc3)c3ccccc3)CC2)cc1
inactive | 220 | – | – | CCN(CC)C(=O)c1ccc(OC(=O)N2CCC(C(O)(c3ccccc3)c3ccccc3)CC2)cc1
inactive | 98 | – | – | CN(C)S(=O)(=O)c1ccc(NC(=S)N2CCC(C(O)(c3ccccc3)c3ccccn3)CC2)cc1 (stereo unspecified)
inactive | – | inactive | – | CCOc1ccc(NC(=S)N2CCC(C(O)(c3ccccc3)C3CCCCC3)CC2)cc1 (stereo unspecified)

Reference: ChEMBL document CHEMBL2029318, “Synthesis and SAR of selective small molecule neuropeptide Y Y2 receptor antagonists” (Bioorg Med Chem Lett, 2012)
